According to patent US4861878A, “1H-pyrido-(2,3-b) (1,4)-thiazines” (Bayer Aktiengesellschaft, priority 1985, dated 1989):

Key:
lipoxygenase = target: T1, lipoxygenase (Rattus norvegicus, UniProt P12527); test: LTB4 release from rat polymorphonuclear leucocytes (PMNL) after calcium ionophore A 23187, by HPLC (lipoxygenase inhibition); format: cell-based, rat (Wistar)
T1 construct: Polymorphonuclear leucocytes from rats (PMNL) were obtained from the peritoneal space in Wistar rats; endogenous in cells; host or cells: peritoneal polymorphonuclear leucocytes of Wistar rats (elicited with sodium caseinate)
T1 sequence (P12527 1-673): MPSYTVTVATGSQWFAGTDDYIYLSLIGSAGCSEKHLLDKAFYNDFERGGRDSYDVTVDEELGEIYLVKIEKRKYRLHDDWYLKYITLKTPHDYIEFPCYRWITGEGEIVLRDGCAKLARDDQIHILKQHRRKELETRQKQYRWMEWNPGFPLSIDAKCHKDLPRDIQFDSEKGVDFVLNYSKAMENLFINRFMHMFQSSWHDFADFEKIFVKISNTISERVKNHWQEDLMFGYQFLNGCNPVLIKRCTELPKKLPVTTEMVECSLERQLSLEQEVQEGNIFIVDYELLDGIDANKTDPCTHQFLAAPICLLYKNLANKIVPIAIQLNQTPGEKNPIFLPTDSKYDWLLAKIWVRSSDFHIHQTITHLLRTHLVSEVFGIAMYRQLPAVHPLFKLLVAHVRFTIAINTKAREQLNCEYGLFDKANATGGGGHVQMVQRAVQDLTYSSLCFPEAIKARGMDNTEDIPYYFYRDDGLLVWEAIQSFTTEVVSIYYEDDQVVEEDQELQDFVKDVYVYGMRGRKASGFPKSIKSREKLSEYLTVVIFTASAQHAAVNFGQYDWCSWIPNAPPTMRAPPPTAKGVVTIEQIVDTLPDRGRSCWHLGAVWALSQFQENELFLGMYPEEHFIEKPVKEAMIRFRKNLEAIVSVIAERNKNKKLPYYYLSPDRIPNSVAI
Description: The release of LTB4 on polymorphonuclear granulocytes after addition of substances and calcium ionophor was determined by means of HPLC as a measure of the lipoxygenase inhibition.
The combined ether phases were washed with 4 ml of water (double distilled), dried while gassing with nitrogen and taken up in 80 μl of methanol.
20 μl of each of the samples thus prepared were applied to a pre-packed column (Nucleosil, type 7.5 C 18M 4×25 mm) and chromatographed at a flow rate of 1 ml/min (Kontron pump system 600), methanol, H2 O and acetic acid (75:25:0.01) being used as the mobile phase. Detection was at 280 nm (Uvicon 720 LC). The formation of the metabolite was quantified with the aid of the internal standard PG B2 as a quotient of the area integrals (Shimadzu C-R1B) of LTB4 to PGB2 and an inhibition was determined as a percentage of the controls.

leucocyte migration = test: Inhibition of leucocyte migration, small sponge impregnated with active compound under the skin on the backs of rats; format: in vivo; details: rat, local, 10 mg/rat, impregnated sponge under skin of back
Text: The 1H-pyrido-[2,3-b][1,4]-thiazines according to the invention also have an in vivo action.
The action of a 1H-pyrido-[2,3-b][1,4]-thiazine after local administration by insertion of a small sponge impregnated with active compound under the skin on the backs of rats may be mentioned as examples.

| Inhibition of leukotriene B4 biosynthesis, % inhibition (lipoxygenase; at 1·10^-5 (M/1), rat PMNL) | Compound | IC50 (lipoxygenase) | Inhibition of Leucocyte migration (control = 0%) (leucocyte migration) |
| --- | --- | --- | --- |
|  | COC(=O)C1=CNc2cccnc2S1 [Example 2] | 5000 nM |  |
|  | CCOC(=O)C1=CN(CC#N)c2cccnc2S1 [Example 19] | 2600 nM |  |
| 42% | O=C1CCCC2=C1Sc1ncccc1N2 |  |  |
|  | CCOC(=O)C1=CNc2cccnc2S1 [Example 1, 3-Ethoxycarbonyl-1H-pyrido[2,3-b][1,4]-thiazine] | 460 nM | 50% |
|  | CCCCOC(=O)C1=CNc2cccnc2S1 [Example 4] | 55 nM |  |
